# Measured values taken from patent US20200010482A1, “INHIBITORS OF BETA SECRETASE” (Janssen Pharmaceutica NV, priority 2017, published 2020).
# Tests used:
# BACE1 = target: T1, BACE1 (Homo sapiens, UniProt P56817); experiment: BACE1 biochemical FRET based assay; conditions: recombinant BACE1 0.04 μg/ml, 20 μM substrate, 450 min, pH 5.0; for IC50: read-out: BIOCHEMICAL FRET BASED ASSAY pIC50 (converted)
# T1 construct: recombinant BACE1 protein in a final concentration of 0.04 μg/ml
# Text: (§1) This assay is a Fluorescence Resonance Energy Transfer Assay (FRET) based assay. The substrate for this assay is an APP derived 13 amino acids peptide that contains the ‘Swedish’ Lys-Met/Asn-Leu mutation of the amyloid precursor protein (APP) beta-secretase cleavage site. This substrate also contains two fluorophores: (7-methoxycoumarin-4-yl) acetic acid (Mca) is a fluorescent donor with excitation wavelength at 320 nm and emission at 405 nm and 2,4-Dinitrophenyl (Dnp) is a proprietary quencher acceptor. […] Upon cleavage by BACE1, the fluorophore Mca is separated from the quenching group Dnp, restoring the full fluorescence yield of the donor. The increase in fluorescence is linearly related to the rate of proteolysis.
# Briefly in a 384-well format recombinant BACE1 protein in a final concentration of 0.04 μg/ml is incubated for 450 minutes at room temperature with 20 μM substrate in incubation buffer (50 mM Citrate buffer pH 5.0, 0.05% PEG) in the presence of compound or DMSO. Next the amount of proteolysis is directly measured by fluorescence measurement (excitation at 320 nm and emission at 405 nm) at different incubation times (0, 30, 60, 90, 120 and 450 min). For every experiment a time curve (every 30 min between 0 min and 120 min) is used to determine the time where we find the lowest basal signal of the high control. The signal at this time (Tx) is used to subtract from the signal at 450 min. Results are expressed in RFU, as difference between T450 and Tx.
# (§2) A best-fit curve is fitted by a minimum sum of squares method to the plot of % Controlmin versus compound concentration. From this an IC50 value (inhibitory concentration causing 50% inhibition of activity) can be obtained. • LC=Median of the low control values=Low control: Reaction without enzyme • HC=Median of the High control values=High Control: Reaction with enzyme
# (§3) % Effect=100−[(sample−LC)/(HC−LC)*100]
# (§4) % Control=(sample/HC)*100
# (§5) % Controlmin=(sample−LC)/(HC−LC)*100
# [1] = system: Abeta total produced and secreted by SKNBE2 cells expressing hAPP695; experiment: Cellular αLisa assay in SKNBE2 cells, Abeta total; type: cell-based, human; conditions: SKNBE2 cells expressing hAPP695, 18 hours incubation; for IC50: Homo sapiens, SKNBE2, 18 h, read-out: CELLULAR αLISA ASSAY IN SKNBE2 CELLS ABETA TOTAL pIC50 (converted)
# Experimental: (§6) In two αLisa assays the levels of Abeta total and Abeta 1-42 produced and secreted into the medium of human neuroblastoma SKNBE2 cells are quantified. The assay is based on the human neuroblastoma SKNBE2 expressing the wild type Amyloid Precursor Protein (hAPP695). The compounds are diluted and added to these cells, incubated for 18 hours and then measurements of Abeta 1-42 and Abeta total are taken. Abeta total and Abeta 1-42 are measured by sandwich αLisa. αLisa is a sandwich assay using biotinylated antibody AbN/25 attached to streptavidin coated beads and antibody Ab4G8 or cAb42/26 conjugated acceptor beads for the detection of Abeta total and Abeta 1-42 respectively. In the presence of Abeta total or Abeta 1-42, the beads come into close proximity. The excitation of the donor beads provokes the release of singlet oxygen molecules that trigger a cascade of energy transfer in the acceptor beads, resulting in light emission. Light emission is measured after 1 hour incubation (excitation at […] and emission at 615 nm).
# as §2, with “cells preincubated” for “Reaction”, “compound, without biotinylated Ab in the αLisa” for “enzyme”, “cells preincubated without compound” for “Reaction with enzyme”
# as §3, §4, §5
# [2] = system: Abeta 1-42 produced and secreted by SKNBE2 cells expressing hAPP695; experiment: Cellular αLisa assay in SKNBE2 cells, Abeta 1-42; type: cell-based, human; conditions: SKNBE2 cells expressing hAPP695, 18 hours incubation; for IC50: Homo sapiens, SKNBE2, 18 h, read-out: CELLULAR αLISA ASSAY IN SKNBE2 CELLS ABETA 42 PIC50 (converted)
# Experimental: as §6
# as §2, with “cells preincubated” for “Reaction”, “compound, without biotinylated Ab in the αLisa” for “enzyme”, “cells preincubated without compound” for “Reaction with enzyme”
# as §3, §4, §5
# BACE2 = target: T2, BACE2 (Homo sapiens, UniProt Q9Y5Z0); experiment: BACE2 biochemical FRET based assay; conditions: recombinant BACE2 0.4 μg/ml, 10 μM substrate, 450 min, pH 5.0; for IC50: read-out: BIOCHEMICAL FRET BASED ASSAY pIC50 (converted)
# T2 construct: recombinant BACE2 protein in a final concentration of 0.4 μg/ml
# T2 sequence (Q9Y5Z0 63-518): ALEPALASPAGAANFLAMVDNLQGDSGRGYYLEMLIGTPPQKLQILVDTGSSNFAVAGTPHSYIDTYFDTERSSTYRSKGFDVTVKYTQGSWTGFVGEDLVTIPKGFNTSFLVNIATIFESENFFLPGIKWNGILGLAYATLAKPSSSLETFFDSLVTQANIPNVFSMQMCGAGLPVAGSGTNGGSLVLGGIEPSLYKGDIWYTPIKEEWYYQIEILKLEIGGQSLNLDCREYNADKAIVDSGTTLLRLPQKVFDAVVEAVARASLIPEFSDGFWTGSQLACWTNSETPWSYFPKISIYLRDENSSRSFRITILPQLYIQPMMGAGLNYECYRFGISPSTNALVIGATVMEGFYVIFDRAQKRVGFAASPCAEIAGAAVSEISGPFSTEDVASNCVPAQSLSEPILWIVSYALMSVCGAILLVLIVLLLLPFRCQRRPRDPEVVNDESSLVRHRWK
# Text: as §1, with “assay” for “assay is an APP derived 13 amino acids peptide that”, “the beta-secretase,” for “BACE1,”
# Briefly in a 384-well format recombinant BACE2 protein in a final concentration of 0.4 μg/ml is incubated for 450 minutes at room temperature with 10 μM substrate in incubation buffer (50 mM Citrate buffer pH 5.0, 0.05% PEG, no DMSO) in the absence or presence of compound. Next the amount of proteolysis is directly measured by fluorescence measurement at T=0 and T=450 (excitation at 320 nm and emission at 405 nm). Results are expressed in RFU (Relative Fluorescence Units), as difference between T450 and TO.
# as §2, §3, §4, §5
# T1 sequence (P56817 46-501): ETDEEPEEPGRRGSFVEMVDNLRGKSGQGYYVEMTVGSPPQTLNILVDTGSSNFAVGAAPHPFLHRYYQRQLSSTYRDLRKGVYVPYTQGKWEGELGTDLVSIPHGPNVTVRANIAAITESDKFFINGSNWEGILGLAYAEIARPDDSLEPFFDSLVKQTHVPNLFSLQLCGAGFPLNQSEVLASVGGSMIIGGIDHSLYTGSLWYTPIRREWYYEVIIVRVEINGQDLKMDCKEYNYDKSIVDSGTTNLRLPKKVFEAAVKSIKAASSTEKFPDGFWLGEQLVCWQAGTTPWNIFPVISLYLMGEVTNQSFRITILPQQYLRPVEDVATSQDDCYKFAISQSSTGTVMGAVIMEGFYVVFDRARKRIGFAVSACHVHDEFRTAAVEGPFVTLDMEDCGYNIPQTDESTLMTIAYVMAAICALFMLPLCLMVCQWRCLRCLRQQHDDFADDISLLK
Structure (SMILES),BIOCHEMICAL FRET BASED ASSAY pIC50 (BACE1),CELLULAR αLISA ASSAY IN SKNBE2 CELLS ABETA TOTAL pIC50 [1],CELLULAR αLISA ASSAY IN SKNBE2 CELLS ABETA 42 PIC50 [2],BIOCHEMICAL FRET BASED ASSAY pIC50 (BACE2),IC50 (BACE1),IC50 [1],IC50 [2],IC50 (BACE2)
COc1ncc(-c2cnccc2C)c2c1C[C@]1(c3cc(-c4cncnc4)ccc3F)N=C(N)SC[C@@H]1C2 (mixture of isomers) [Compound 39],8.3,8.71,8.78,5.78,,,,
COc1nccc2c1C[C@]1(c3ccccc3)N=C(N)SC[C@@H]1C2 (racemic) [Compound 1],,,,,398 nM,74.1 nM,69.2 nM,468 nM
COc1nccc2c1C[C@]1(c3ccccc3F)N=C(N)SC[C@@H]1C2 (racemic) [Compound 2],,,,,158 nM,46.8 nM,53.7 nM,174 nM
NC1=N[C@@]2(c3ccccc3F)Cc3c(cc[nH]c3=O)C[C@H]2CS1 (racemic) [Compound 3],,,,,8710 nM,4680 nM,4070 nM,9550 nM
COc1nccc2c1CC1(c3cc(O)ccc3F)N=C(N)SCC1C2 (racemic) [Compound 5],,,,,162 nM,32.4 nM,26.3 nM,63.1 nM
COc1ncc(Br)c2c1C[C@]1(c3ccccc3F)N=C(N)SC[C@@H]1C2 (racemic) [Compound 16],,,,,55 nM,138 nM,138 nM,77.6 nM
COc1ncc(Br)c2c1CC1(c3ccc(F)cc3F)N=C(N)SCC1C2 (racemic) [Compound 17],,,,,30.9 nM,145 nM,132 nM,67.6 nM
COc1ncc(C2CC2)c2c1C[C@]1(c3ccccc3F)N=C(N)SC[C@@H]1C2 (racemic) [Compound 20],,,,,24.5 nM,23.4 nM,23.4 nM,14.1 nM
CCOc1ncc(C2CC2)c2c1CC1(c3ccc(F)cc3F)N=C(N)SCC1C2 (racemic) [Compound 21],,,,,135 nM,302 nM,355 nM,97.7 nM
COc1ncc(C#N)c2c1CC1(c3ccc(F)cc3F)N=C(N)SCC1C2 (racemic) [Compound 23],,,,,75.9 nM,29.5 nM,26.3 nM,155 nM
CCOC(=O)c1cnc(OC)c2c1C[C@H]1CSC(N)=N[C@@]1(c1ccc(F)cc1F)C2 (racemic) [Compound 24],,,,,13.8 nM,6.61 nM,6.92 nM,12.3 nM
COc1ncc(-c2cccnc2)c2c1C[C@]1(c3ccc(F)cc3F)N=C(N)SC[C@@H]1C2 (racemic) [Compound 25],,,,,5.89 nM,1.91 nM,1.7 nM,12 nM
COc1ncc(-c2ccn[nH]2)c2c1C[C@]1(c3ccc(F)cc3F)N=C(N)SC[C@@H]1C2 (racemic) [Compound 29],,,,,35.5 nM,12.6 nM,13.5 nM,35.5 nM
Cn1ccc2c(c1=O)C[C@]1(c3ccccc3F)N=C(N)SC[C@@H]1C2 (racemic) [Compound 34],,,,,6030 nM,1510 nM,1410 nM,6030 nM
"CCOc1nccc2c1CC1(c3ccc(F)cc3F)N=C(N)SCC1C2 (single isomer, unassigned) [Compound 194]",,,,,> 10000 nM,6920 nM,> 8910 nM,> 10000 nM
"CCOc1nccc2c1CC1(c3ccc(F)cc3F)N=C(N)SCC1C2 (single isomer, unassigned) [Compound 195]",6.9,7.09,7.09,6.85,,,,
"COc1ncc(-c2cnccc2C)c2c1CC1(c3ccc(Cl)cc3F)N=C(N)SCC1C2 (single isomer, unassigned) [Compound 200]",,8.05,8.09,,17.8 nM,,,437 nM
"COc1ncc(-c2cnccc2C)c2c1CC1(c3ccc(Cl)cc3F)N=C(N)SCC1C2 (single isomer, unassigned) [Compound 201]",,5.69,5.64,,6460 nM,,,> 10000 nM
COc1nccc2c1C[C@]1(c3ccc(F)cc3F)N=C(N)SC[C@@H]1C2 [Compound 35],,,,,34.7 nM,12 nM,13.8 nM,44.7 nM
COc1nccc2c1C[C@]1(c3cc(O)ccc3F)N=C(N)SC[C@@H]1C2 [Compound 36],,,,,138 nM,15.8 nM,16.6 nM,45.7 nM
COc1ncc(-c2ccccc2Cl)c2c1C[C@]1(c3ccc(F)cc3F)N=C(N)SC[C@@H]1C2 [Compound 52],8.38,7.88,7.96,7.35,,,,
COc1ncc(-c2cc(C#N)ccc2Cl)c2c1C[C@]1(c3ccc(F)cc3F)N=C(N)SC[C@@H]1C2 [Compound 53],7.97,7.9,7.84,6.84,,,,
COc1ncc(-c2cccnc2)c2c1C[C@]1(c3ccc(F)cc3F)N=C(N)SC[C@@H]1C2 [Compound 87],,,,,3.8 nM,0.631 nM,0.646 nM,7.08 nM
